# Data as given in patent publication US20230097253A1, “NOVEL QUINAZOLINE COMPOUND AS THERAPEUTIC AGENT FOR METABOLIC DISORDERS” (BIOWAY., INC, priority 2020, published 2023).
# Legend:
# [1] = test system: steatosis-induced Huh7 cells; test: Fat globule reducing effect by Oil-Red-O staining, compared to existing developed materials; assay type: cell-based; details: FIG. 3
# Experimental: In order to confirm the inhibition of fat accumulation in steatosis-induced liver cells, Huh7 cells were cultured in an incubator set at 37° C., 95% humidity, and 5% C02.
# (§1) Additionally, Huh7 cells were proliferated to a confluency of 80-90% on a plate using a growth medium (Dulbecco's modified Eagle's medium (DMEM) supplemented with 10% fetal bovine serum (FBS), 100 U/ml of penicillin, and 100 μg/ml of streptomycin), and then used for the experiment.
# (§2) In order to confirm the ability of BW-3290 to inhibit fat globule accumulation in steatosis-induced liver cells compared to the existing material under development, the liver cells were treated with palmitic acid (PA) bound to 2% BSA at a concentration of 250 μM except for the control group to induce steatosis, and then fat globules were stained through Oil-Red-O staining.
# First, liver cells were cultured to grow 80-90% confluency in a 12 well plate, and the test material, BW-3290, were diluted in the culture medium that induced steatosis and the liver cells, except for the control group, were treated with 0.5 μM, 2.5 μM, 5 μM, and […].
# Additionally, after removing the cell supernatant from the wells for Oil-Red-O staining, the washing process was performed twice with PBS.
# Additionally, after washing, the resultant was fixed with 4% paraformaldehyde for 30 minutes. […]
# 3T3-L1 cells = test: Inhibition of fat globule formation in adipocytes by Oil-Red-O staining; assay type: cell-based, mouse; details: 3T3-L1 adipocytes, 0.5, 2.5, 10 and 20 μM
# Experimental: In order to confirm the effect of the compound on reducing fat accumulation on adipocytes, 3TL-L1 mouse fat progenitor cells (American Type Culture Collection) were cultured in an incubator set at 37° C. with 95% humidity and 5% CO2.
# Additionally, after sufficiently proliferating 3T3-L1 mouse adipocytes using a proliferation medium (Dulbecco's modified Eagle's medium (DMEM) supplemented with 10% bovine serum (BS), 100 U/mL of penicillin, and 100 μg/mL of streptomycin), the cells were treated with a differentiation medium (DMEM containing 10% FBS, 0.5 mM 3-isobutyl-1-methylxanthine, 1 […], and 5 μg/mL insulin) for 2 days.
# Thereafter, the cells were treated with an induction medium (DMEM containing 10% FBS and 5 μg/mL insulin) for 2 days, the maintenance medium (DMEM containing 10% FBS) was replaced daily to maintain the differentiated adipocytes until the end of the experiment.
# According to an embodiment of the present invention, in order to confirm the ability of the compound of Formula 2 to inhibit fat globule formation, the 3T3-L1 cells (which are fat progenitor cells) were induced to be differentiated into adipocytes, and then stained through Oil-Red-O staining. […]
# [2] = test system: steatosis-induced Huh7 cells; test: Fat globule reducing effect in steatosis-induced hepatocytes by Oil-Red-O staining; assay type: cell-based; details: 250 μM PA, 0.5, 2.5 and 10 μM, concentration dependent, FIG. 7
# Experimental: According to an embodiment of the present invention, in order to confirm the effect of inhibiting the accumulation of triglycerides in steatosis-induced liver cells, the Huh7 cells were cultured in an incubator set at 37° C. with 95% humidity and 5% CO2.
# as §1
# as §2, with “According to an embodiment of the present invention, in” for “In”, “cells,” for “cells compared to the existing material under development,”
# First, liver cells were cultured to grow 80-90% confluency in a 12 well plate, and the test material were diluted in the culture medium that induced steatosis and the liver cells, except for the control group, were treated with 0.5 μM, 2.5 μM, and 10 μM of the test material.
# Additionally, after removing the cell supernatant from the wells for Oil-Red-O staining, the washing process was performed twice with PBS. […]
# [3] = Pharmacokinetic parameters after oral administration; assay type: in vivo, Sprague Dwaley (SD) rats; details: male SD rats, 10 mg/kg, FIG. 16
# Experimental: An experiment was performed to measure the pharmacokinetic parameters of BW-3290 using three male Sprague Dwaley (SD) rats. As for BW-3290, a formulation with a composition of 95% water containing 5% DMSO and 20% HPbCD was used, and was orally administered at a concentration of 10 mg/kg. Blood samples were collected from the jugular vein at time points of 0.25, 0.5, 1, 4, 8, 10, 12, and 24 hours. The blood samples collected were centrifuged for 15 minutes at 4° C. at 2,500×g to secure plasma. Bioanalysis for the measurement of pharmacokinetic parameters was analyzed by LC-MS/MS.
# DIAMOND™ mouse model [4] = test: In-vivo activity in DIAMOND mouse model: body weight, liver weight, liver function enzymes; details: DIAMOND mice, 16 mg/kg oral once daily for 8 weeks
# Experimental: (§3) The DIAMOND™ mouse model, an animal model prepared using a Western diet and sugar water, was used. The DIAMOND™ mice were induced with WDSW for 14 weeks, and 12 mice were used for the control group and 12 mice for the BW-3290 treatment group, and BW-3290 was orally administered at 16 mg/kg once daily for 8 weeks. An autopsy was performed at week 22, and blood collection and tissue storage were performed for the individuals in each group.
# DIAMOND™ mouse model [5] = test: In-vivo activity, histopathological diagnosis (H&E and Oil-Red-O staining of liver tissue); details: DIAMOND mice, 16 mg/kg oral once daily for 8 weeks, FIG. 18
# Experimental: as §3
# Hematoxylin & Eosin (H&E) staining and Oil-Red-O (ORO) staining were performed using liver tissue obtained after autopsy
# DIAMOND™ mouse model [6] = test: Efficacy in improving liver fibrosis (Sirius Red and Trichrome staining of liver tissue); assay type: in vivo; details: DIAMOND mice liver tissue, 16 mg/kg oral once daily for 8 weeks, compared to control group (VC)
# Experimental: as §3
# Staining was performed by Sirius Red staining and Trichrome (Masson's trichrome) staining, which are the staining methods that can confirm fibrosis, was stained using the liver tissue obtained after autopsy.
# [7] = week 22, compared to control group (VC), FIG. 17
# [8] = vs control group (VC), statistical significance
smiles,measurement,setting,value
"CC(C)C(Nc1ncnc2nc[nH]c12)c1nc2cccc(Cl)c2c(=O)n1-c1ccccc1 (stereo not drawn) [BW-3290, 2-(1-((7H-purin-6-yl)amino)-2-methylpropyl)-5-chloro-3-phenylquinazolin-4(3H)-one]",fat globule staining (Oil-Red-O) compared to PA,"[1]; 250 μM PA, 0.5, 2.5, 5 and 10 μM, concentration dependent",lower level of fat globule staining compared to PA
same,staining of fat globules in comparison with PF-06409577 and elafibranor,"[1]; 250 μM PA, at the same concentration of 10 μM and at lower concentrations",reduced
same,fat globule staining (Oil-Red-O) compared to differentiation,"3T3-L1 cells; concentration-dependent, FIG. 5",lower level of fat globule staining compared to differentiation
same,amount of stained fat globules,3T3-L1 cells; FIG. 6,appeared less in a drug concentration-dependent manner
same,fat globule staining (Oil-Red-O) compared to PA,[2],lower level of fat globule staining compared to PA
same,AUClast,[3],excellent
same,Cmax,[3],excellent
same,concentration after 12 hours after absorption,[3]; plasma,maintained to some extent
same,liver/body weight ratio,DIAMOND™ mouse model [4]; week 22,improve
same,body weight,DIAMOND™ mouse model [4]; [7],decreased
same,liver weight,DIAMOND™ mouse model [4]; [7],decreased
same,alkaline phosphatase (ALP) level,DIAMOND™ mouse model [4]; vs control group (VC),decreased
same,alanine aminotransferase (ALT) level,DIAMOND™ mouse model [4]; [8],decreased
same,aspartate aminotransferase (AST) level,DIAMOND™ mouse model [4]; [8],decreased
same,"fat cells stained in red in liver tissue, ORO staining",DIAMOND™ mouse model [5]; compared to the control group (VC),reduced
same,"fat globules in liver tissue, H&E staining",DIAMOND™ mouse model [5]; compared to the control group,reduced
same,fiberized portions stained in blue by Trichrome staining,DIAMOND™ mouse model [6],reduced
same,collagen and amyloid tissues stained in red by Sirius Red staining,DIAMOND™ mouse model [6]; FIGS. 19 and 22,decreased
